Data set [1] deals with T1, plasmin (Homo sapiens (Human), UniProt P00747). As to conditions: background literature; read-out: Ki / inhibition constant for plasmin; cited from earlier work.
Target sequence in this assay (P00747 581-810, species assumed): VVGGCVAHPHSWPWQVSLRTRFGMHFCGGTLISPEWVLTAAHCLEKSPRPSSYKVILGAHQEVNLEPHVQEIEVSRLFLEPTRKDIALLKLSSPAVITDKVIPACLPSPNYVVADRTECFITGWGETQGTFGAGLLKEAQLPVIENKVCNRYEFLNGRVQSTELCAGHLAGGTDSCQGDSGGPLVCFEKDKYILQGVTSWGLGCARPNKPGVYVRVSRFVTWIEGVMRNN
Target sequence in this assay (P00747 97-580 partner, species assumed): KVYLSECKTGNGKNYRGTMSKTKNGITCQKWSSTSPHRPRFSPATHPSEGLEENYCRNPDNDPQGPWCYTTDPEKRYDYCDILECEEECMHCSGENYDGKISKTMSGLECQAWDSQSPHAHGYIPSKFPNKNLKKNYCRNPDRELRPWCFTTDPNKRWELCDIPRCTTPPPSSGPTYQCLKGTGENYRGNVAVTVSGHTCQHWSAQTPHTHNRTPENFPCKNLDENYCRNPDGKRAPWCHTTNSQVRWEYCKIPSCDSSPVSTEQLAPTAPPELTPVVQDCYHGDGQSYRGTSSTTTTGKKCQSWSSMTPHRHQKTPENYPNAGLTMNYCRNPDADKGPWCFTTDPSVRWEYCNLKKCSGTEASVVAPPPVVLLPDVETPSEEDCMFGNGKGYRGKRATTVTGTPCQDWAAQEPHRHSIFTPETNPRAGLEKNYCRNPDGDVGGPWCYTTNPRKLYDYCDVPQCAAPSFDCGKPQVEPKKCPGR
The next data set addresses human alpha-FXIIa (Homo sapiens (Human), UniProt P00748). The data set is described as follows: Inhibition of human alpha-Factor XIIa. It is filed as biochemical. The note with it: CHA-Gly-Arg-pNA substrate; read-out: h FXIIa Ki. Here is the method:
(§1) The inhibitory effect for the individual enzymes was determined in analogy to a previously disclosed method (Stürzebecher et al., J. Med. Chem., 40, 3091-3099 (1997)).
(§2) 200 μl of TBS (0.05 M trishydroxymethylaminomethane; 0.154 M NaCl, 2% ethanol, pH 8.0)
(§3) 2 μL of a test compound solution in 50% v/v DMSO/water
(§4) For zero order kinetics, the reaction was stopped after 20 min by adding 15 μl of acetic acid (80% v/v), and the absorption at 405 nm was determined using a Microplate Reader (Multiscan Ascent™, from Thermo). In the case of pseudo-first order kinetics, the reaction rates in the equilibrium state were determined by continuously recording the change in absorbance at 405 nm. The Ki values were calculated by parameter fitting in accordance with the rate equation for competitive inhibition using the GraFit software, version 4. The Ki values are the average of at least three determinations.

For data set [2], the target named is T1, plasmin. Briefly: Determination of inhibition constants for human plasmin (chromogenic substrate). The data set is classed as biochemical. The note with it: 25° C., Chromozym PL substrate; read-out: h plasmin Ki. As for the experimental part:
(§5) Determination of the Inhibition Constants for Human Plasmin (h Plasmin) and Human Plasma Kallikrein (h PK)
as §1, §2
(§6) 25 μl of substrate (4 mM, 2 mM and 1 mM tosyl-Gly-Pro-Lys-pNA=Chromozym PL from LOXO for plasmin and 3 mM, 1.5 mM and 1 mM H-D-Pro-Phe-Arg-pNA=S2302 from Chromogenix for PK, dissolved in H2O)
as §3
(§7) 50 μl of enzyme solution (plasmin from Calbiochem: 1.7 mU/ml in 0.154 M NaCl+0.1% BSA m/v; plasma kallikrein from Enzyme Research Lab.: 62 ng/ml in 0.154 M NaCl+0.1% BSA m/v)
as §4
Target sequence in this assay (P00747 581-810): as the sequence (P00747 581-810, species assumed) above
Target sequence in this assay (P00747 97-580 partner): as the sequence (P00747 97-580 partner, species assumed) above

The target of a further data set is human Factor XIa (Homo sapiens (Human), UniProt P03951). Briefly: Inhibition of human Factor XIa. It is filed as biochemical. As to conditions: Pefachrome PCa substrate; read-out: h FXIa Ki. As for the experimental part:
as §1, §2, §3, §4

Data set [3] concerns the target human activated C1s complement component (Homo sapiens (Human), UniProt P09871). Briefly: Inhibition of human C1s. It is filed as biochemical. The note with it: S2314 substrate; read-out: h C1s Ki. As for the experimental part:
as §1, §2, §3, §4
Subcomponent “s” of Human Complement Component 1 (h C1s): Inhibition of human C1s was determined by the method described in [0092]-[0098] using native human activated C1s complement component from Calbiochem at 29 nM and Val-Ser-Arg-pNA (S2314) at 8 mM, 6 mM, and 4 mM as substrate; results are reported as Ki values (nanomolar).

For data set [4], the target named is human activated C1r complement component (Homo sapiens (Human), UniProt P00736). Briefly: Inhibition of human C1r. It is filed as biochemical. The note with it: S2314 substrate; read-out: h C1r Ki. Here is the method:
as §1, §2, §3, §4

The next data set deals with human urinary kallikrein (Homo sapiens (Human), UniProt P06870). Briefly: Inhibition of human urinary kallikrein. The data set is classed as biochemical. The note with it: S-2266 substrate; read-out: h uKK Ki. As for the experimental part:
as §1, §2, §3, §4

The target in the next data set is plasma kallikrein (Homo sapiens (Human), UniProt P03952). Briefly: Determination of inhibition constants for human plasma kallikrein (chromogenic substrate). As to conditions: 25° C., S2302 substrate; read-out: h PK Ki. It is filed as biochemical. As for the experimental part: as §5, §1, §2, §6, §3, §7, §4
The target of the next data set is human alpha-thrombin (Homo sapiens (Human), UniProt P00734). The data set is described as follows: Inhibition of human Factor IIa. It is filed as biochemical. The note with it: Pefachrome tPA substrate; read-out: h FIIa Ki. Here is the method: as §1, §2, §3, §4
In a further data set the target is human Factor Xa (Homo sapiens (Human), UniProt P00742). Briefly: Inhibition of human Factor Xa. As to conditions: Pefachrome FXa substrate; read-out: h FXa Ki. The data set is classed as biochemical. As for the experimental part: The inhibitory effect for the individual enzymes was determined in analogy to a previously disclosed method (Stürzebecher et al., J. Med. […] In the case of pseudo-first order kinetics, the reaction rates in the equilibrium state were determined by continuously recording the change in absorbance at 405 nm. […] The Ki values are the average of at least three determinations. Human Factor Xa (h FXa): […]

The target in another data set is human t-PA (Homo sapiens (Human), UniProt P00750). The data set is described as follows: Inhibition of human tissue-type plasminogen activator. The data set is classed as biochemical. The note with it: Pefachrome tPA substrate; read-out: h t-PA Ki. Here is the method:
as §1, §2, §3, §4

For data set [5], the target named is human activated protein C (Homo sapiens (Human), UniProt P04070). Briefly: Inhibition of human activated protein C. The data set is classed as biochemical. The note with it: Pefachrome PCa substrate; read-out: h aPC Ki. As for the experimental part: as §1, §2, §3, §4
In the next data set the target is trypsin. As to conditions: background; cited from earlier work.
The conditions of data set [6]: cited from earlier work.

Where two headings read alike, the source gives them in different places. A value given as a limit tells only on which side of the number the result lay.

The values below come from patent publication US8598206B2, “Trypsin-like serine protease inhibitors, and their preparation and use” (The Medicines Company (Leipzig) GmbH, priority 2010, dated 2013).

human activated C1s complement component, sequence (P09871 438-688): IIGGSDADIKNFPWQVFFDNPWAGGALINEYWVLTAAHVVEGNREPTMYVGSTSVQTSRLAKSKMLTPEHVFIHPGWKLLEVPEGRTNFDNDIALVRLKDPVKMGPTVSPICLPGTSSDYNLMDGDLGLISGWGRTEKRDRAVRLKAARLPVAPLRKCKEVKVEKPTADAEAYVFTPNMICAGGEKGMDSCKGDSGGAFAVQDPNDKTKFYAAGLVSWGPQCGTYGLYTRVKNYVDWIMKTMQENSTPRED
human activated C1s complement component, sequence (P09871 16-437 partner): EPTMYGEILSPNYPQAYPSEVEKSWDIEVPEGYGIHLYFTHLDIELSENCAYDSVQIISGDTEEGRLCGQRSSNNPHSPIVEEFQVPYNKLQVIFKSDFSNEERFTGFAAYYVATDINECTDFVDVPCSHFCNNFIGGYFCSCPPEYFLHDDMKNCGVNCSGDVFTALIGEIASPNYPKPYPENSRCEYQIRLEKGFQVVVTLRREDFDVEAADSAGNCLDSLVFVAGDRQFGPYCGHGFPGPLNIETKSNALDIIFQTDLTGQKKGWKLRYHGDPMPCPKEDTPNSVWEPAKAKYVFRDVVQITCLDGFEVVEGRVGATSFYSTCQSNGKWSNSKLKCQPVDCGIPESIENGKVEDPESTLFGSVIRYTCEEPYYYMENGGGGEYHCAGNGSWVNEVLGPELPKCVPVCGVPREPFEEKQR
human Factor XIa, sequence (P03951 388-625): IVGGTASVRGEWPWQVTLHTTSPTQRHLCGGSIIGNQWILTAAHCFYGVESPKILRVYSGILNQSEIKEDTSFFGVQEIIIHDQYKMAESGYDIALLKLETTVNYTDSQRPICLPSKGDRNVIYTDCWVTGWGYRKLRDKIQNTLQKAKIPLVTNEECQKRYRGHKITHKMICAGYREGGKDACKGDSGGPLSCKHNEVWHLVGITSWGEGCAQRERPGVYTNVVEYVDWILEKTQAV
human Factor XIa, sequence (P03951 19-387 partner): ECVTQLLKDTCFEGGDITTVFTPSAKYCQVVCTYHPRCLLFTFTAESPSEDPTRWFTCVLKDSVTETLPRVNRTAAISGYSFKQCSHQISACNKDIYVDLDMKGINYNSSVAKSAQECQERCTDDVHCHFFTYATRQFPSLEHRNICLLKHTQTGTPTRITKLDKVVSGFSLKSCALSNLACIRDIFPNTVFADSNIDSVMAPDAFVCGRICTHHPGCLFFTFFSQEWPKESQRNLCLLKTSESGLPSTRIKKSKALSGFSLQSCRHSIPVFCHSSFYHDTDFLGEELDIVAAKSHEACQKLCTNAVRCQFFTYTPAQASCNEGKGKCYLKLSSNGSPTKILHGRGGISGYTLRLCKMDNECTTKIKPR
human urinary kallikrein, sequence (P06870 25-262): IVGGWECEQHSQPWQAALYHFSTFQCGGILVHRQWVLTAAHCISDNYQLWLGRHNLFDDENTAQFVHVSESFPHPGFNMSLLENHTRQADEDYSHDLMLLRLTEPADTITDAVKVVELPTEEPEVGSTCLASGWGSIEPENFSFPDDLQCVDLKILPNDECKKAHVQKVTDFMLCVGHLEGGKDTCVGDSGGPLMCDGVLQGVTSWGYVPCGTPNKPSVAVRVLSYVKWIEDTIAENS
plasma kallikrein, sequence (P03952 391-638): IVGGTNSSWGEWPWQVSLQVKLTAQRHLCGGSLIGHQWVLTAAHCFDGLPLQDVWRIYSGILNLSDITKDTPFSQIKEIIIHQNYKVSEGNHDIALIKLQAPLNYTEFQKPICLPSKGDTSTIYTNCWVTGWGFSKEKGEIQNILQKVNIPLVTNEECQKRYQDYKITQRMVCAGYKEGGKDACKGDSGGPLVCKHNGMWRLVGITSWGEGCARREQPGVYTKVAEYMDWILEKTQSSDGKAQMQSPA
plasma kallikrein, sequence (P03952 20-390 partner): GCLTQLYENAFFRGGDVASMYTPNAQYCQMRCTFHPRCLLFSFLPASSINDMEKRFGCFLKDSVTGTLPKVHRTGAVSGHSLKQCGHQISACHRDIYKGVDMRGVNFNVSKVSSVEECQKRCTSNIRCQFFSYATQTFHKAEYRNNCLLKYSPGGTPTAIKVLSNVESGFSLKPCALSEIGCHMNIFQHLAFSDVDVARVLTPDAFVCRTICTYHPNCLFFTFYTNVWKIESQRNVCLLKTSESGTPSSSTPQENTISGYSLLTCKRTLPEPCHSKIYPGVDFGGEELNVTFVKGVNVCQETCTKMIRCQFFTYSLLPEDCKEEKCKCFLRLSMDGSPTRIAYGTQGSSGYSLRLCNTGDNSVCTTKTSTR
human activated protein C, sequence (P04070 212-450): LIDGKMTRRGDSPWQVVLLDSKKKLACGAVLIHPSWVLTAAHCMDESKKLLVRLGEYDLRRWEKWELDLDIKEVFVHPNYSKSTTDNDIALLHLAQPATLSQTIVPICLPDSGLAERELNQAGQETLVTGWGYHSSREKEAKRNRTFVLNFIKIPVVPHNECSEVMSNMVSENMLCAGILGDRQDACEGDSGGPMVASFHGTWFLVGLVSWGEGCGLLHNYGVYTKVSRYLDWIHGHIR
human activated protein C, sequence (P04070 43-197 partner): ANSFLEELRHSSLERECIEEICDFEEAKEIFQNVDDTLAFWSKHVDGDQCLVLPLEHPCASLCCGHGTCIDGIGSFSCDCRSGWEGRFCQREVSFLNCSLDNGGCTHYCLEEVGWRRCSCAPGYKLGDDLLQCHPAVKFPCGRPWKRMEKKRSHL
human t-PA, sequence (P00750 36-562): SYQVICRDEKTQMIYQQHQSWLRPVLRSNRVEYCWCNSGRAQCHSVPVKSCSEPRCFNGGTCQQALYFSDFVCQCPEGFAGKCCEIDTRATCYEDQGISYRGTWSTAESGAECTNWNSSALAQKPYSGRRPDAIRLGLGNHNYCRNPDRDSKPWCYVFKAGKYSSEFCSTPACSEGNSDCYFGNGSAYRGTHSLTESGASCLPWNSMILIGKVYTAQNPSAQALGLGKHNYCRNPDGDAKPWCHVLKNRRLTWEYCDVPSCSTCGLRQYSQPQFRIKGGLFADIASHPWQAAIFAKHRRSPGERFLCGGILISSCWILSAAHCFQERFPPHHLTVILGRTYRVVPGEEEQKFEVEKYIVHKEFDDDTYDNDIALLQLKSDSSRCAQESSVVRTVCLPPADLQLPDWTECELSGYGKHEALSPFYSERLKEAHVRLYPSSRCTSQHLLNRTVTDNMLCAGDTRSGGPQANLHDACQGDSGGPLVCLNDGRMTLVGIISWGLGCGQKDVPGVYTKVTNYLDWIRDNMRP
human activated C1r complement component, sequence (P00736 464-705): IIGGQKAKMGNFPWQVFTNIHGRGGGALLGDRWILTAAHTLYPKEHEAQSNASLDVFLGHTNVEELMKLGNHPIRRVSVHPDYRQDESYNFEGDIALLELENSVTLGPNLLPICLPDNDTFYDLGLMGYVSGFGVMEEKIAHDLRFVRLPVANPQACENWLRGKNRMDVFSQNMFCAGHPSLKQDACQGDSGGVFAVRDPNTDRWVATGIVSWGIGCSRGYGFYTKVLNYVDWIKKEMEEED
human activated C1r complement component, sequence (P00736 18-463 partner): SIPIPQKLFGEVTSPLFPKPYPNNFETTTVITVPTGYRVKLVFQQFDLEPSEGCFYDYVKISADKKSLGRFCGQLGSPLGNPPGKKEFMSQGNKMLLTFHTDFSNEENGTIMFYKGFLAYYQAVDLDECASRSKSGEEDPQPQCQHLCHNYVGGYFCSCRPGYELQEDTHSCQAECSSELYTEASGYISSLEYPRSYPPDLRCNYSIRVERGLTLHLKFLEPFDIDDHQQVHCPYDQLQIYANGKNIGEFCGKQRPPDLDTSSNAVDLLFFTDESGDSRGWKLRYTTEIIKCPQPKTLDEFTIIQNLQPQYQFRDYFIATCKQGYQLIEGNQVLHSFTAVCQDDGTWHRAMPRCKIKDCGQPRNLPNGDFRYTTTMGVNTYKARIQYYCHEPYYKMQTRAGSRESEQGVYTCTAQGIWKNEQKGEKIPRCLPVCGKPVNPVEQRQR

Take `N=C(N)c1ccc(CNC(=O)[C@@H]2CCN2C(=O)[C@H](NCC(=O)O)C2CCCCC2)cc1` [melagatran]: the Ki on plasmin [1] is 700 nM.

Take `CC(=O)N1CCC(CCC[C@@H](NS(=O)(=O)Cc2ccccc2)C(=O)N[C@@H](CCC2CCNCC2)C(=O)NCc2ccc(C(=N)N)cc2)CC1`: the Ki at human alpha-FXIIa was 630 nM; on plasmin [2], 1.5 nM; on human Factor XIa it was 870 nM; in [3] it was 9000 nM; in data set [4], more than 100000 nM; on human urinary kallikrein, more than 500000 nM. For the same compound, the Ki came out at 2 nM at plasma kallikrein; 3800 nM on human alpha-thrombin; 750 nM at human Factor Xa; 3000 nM at human t-PA; 1100 nM in data set [5].

For `CCC(=O)N1CCC(CC[C@@H](NS(=O)(=O)Cc2ccccc2)C(=O)N[C@@H](CCC2CCNCC2)C(=O)NCc2ccc(C(=N)N)cc2)CC1`, the Ki is 650 nM on human alpha-FXIIa; 0.8 nM on plasmin [2]; 720 nM on human Factor XIa; more than 25000 nM in [3]; more than 35000 nM in [4]; more than 60000 nM on human urinary kallikrein. The Ki was found to be 0.9 nM on plasma kallikrein; 5600 nM on human alpha-thrombin; 2300 nM at human Factor Xa; 5100 nM at human t-PA; 1200 nM in data set [5].

Turning to aprotinin, the Ki at trypsin was 0.1 nM. In addition, the “risk of anaphylactic shock” value was less than 0.1% in [6] (first administration) and 4-5% in [6] (repeated administration within 200 days).
